# Legend:
# Format in all cases: cell-based
# [1] = test system: Enterobacter aerogenes; test: In Vitro Agar Screening Test; settings: Klebsiella aerogenes, nutrient agar, 37°C, levels 1, 5, 10, 50 μg/ml, read-out: Minimum Inhibitory Concentration
# Protocol: (§1) This test measures the bactericidal, fungicidal and algaecidal properties of a compound when in contact with growing bacteria, fungi or algae in an artificial medium. The test is conducted by adding 20 ml portions of a suitable warm sterile agar solution into 20 × 100 mm Petri dishes at levels of 1, 5, 10 and 50 μg/ml and mixed with the warm mobile agar solution. The treated agar mixture is then allowed to come to room temperature and solidify. Cells of the chosen organism are streaked on the surface of the solidified agar and are then incubated for such lengths of time that untreated samples containing no toxicant show luxurious growth typical of the particular organism. This time varies from 24 hours to 1 week depending on the particular organism. The fungi are incubated at 30°C and the bacteria are incubated at 37°C. The algae are incubated at room temperature under artificial light. Nutrient agar is used as the medium in this test for the bacteria. Potato dextrose agar is used as the medium for the fungi with the exception of Trichophyton mentagrophytes for which Emmons agar is used. A modified Jack Meyers agar is used for the growth of the algae.
# (§2) The extent of growth is noted at the end of the incubation period.
# [2] = test system: Escherichia coli; test: In Vitro Agar Screening Test; settings: nutrient agar, 37°C, levels 1, 5, 10, 50 μg/ml, read-out: Minimum Inhibitory Concentration
# Protocol: as §1, §2
# [3] = test system: Pencillium expansum; test: In Vitro Agar Screening Test; settings: potato dextrose agar, 30°C, levels 1, 5, 10, 50 μg/ml, read-out: Minimum Inhibitory Concentration
# Protocol: as §1, §2
# [4] = test system: Scenedesmus obliquus; test: In Vitro Agar Screening Test; settings: Tetradesmus obliquus, modified Jack Meyers agar, room temperature, artificial light, levels 1, 5, 10, 50 μg/ml, read-out: Minimum Inhibitory Concentration
# Protocol: as §1, §2
# [5] = test system: Chlorella pyrenoidosa; test: In Vitro Agar Screening Test; settings: Auxenochlorella pyrenoidosa, modified Jack Meyers agar, room temperature, artificial light, levels 1, 5, 10, 50 μg/ml, read-out: Minimum Inhibitory Concentration
# Protocol: as §1, §2
# [6] = test system: Euglena gracilis; test: In Vitro Agar Screening Test; settings: modified Jack Meyers agar, room temperature, artificial light, levels 1, 5, 10, 50 μg/ml, read-out: Minimum Inhibitory Concentration
# Protocol: as §1, §2
# [7] = test system: Aspergillus fumigatus; test: In Vitro Agar Screening Test; settings: potato dextrose agar, 30°C, levels 1, 5, 10, 50 μg/ml, read-out: Minimum Inhibitory Concentration
# Protocol: as §1, §2
# [8] = test system: Pseudomonas aeruginosa; test: In Vitro Agar Screening Test; settings: nutrient agar, 37°C, levels 1, 5, 10, 50 μg/ml, read-out: Minimum Inhibitory Concentration
# Protocol: as §1, §2
# [9] = test system: Trichoderma sp.; test: In Vitro Agar Screening Test; settings: potato dextrose agar, 30°C, levels 1, 5, 10, 50 μg/ml, read-out: Minimum Inhibitory Concentration
# Protocol: as §1, §2
# [10] = test system: Pseudomonas fluorescens; test: In Vitro Agar Screening Test; settings: nutrient agar, 37°C, levels 1, 5, 10, 50 μg/ml, read-out: Minimum Inhibitory Concentration
# Protocol: as §1, §2
# [11] = test system: Pencillium ochra-chloron; test: In Vitro Agar Screening Test; settings: potato dextrose agar, 30°C, levels 1, 5, 10, 50 μg/ml, read-out: Minimum Inhibitory Concentration
# Protocol: as §1, §2
# [12] = test system: Bacillus cereus; test: In Vitro Agar Screening Test; settings: nutrient agar, 37°C, levels 1, 5, 10, 50 μg/ml, read-out: Minimum Inhibitory Concentration
# Protocol: as §1, §2
# [13] = test system: Aspergillus niger; test: In Vitro Agar Screening Test; settings: potato dextrose agar, 30°C, levels 1, 5, 10, 50 μg/ml, read-out: Minimum Inhibitory Concentration
# Protocol: as §1, §2
# [14] = test system: Aspergillus oryzae; test: In Vitro Agar Screening Test; settings: potato dextrose agar, 30°C, levels 1, 5, 10, 50 μg/ml, read-out: Minimum Inhibitory Concentration
# Protocol: as §1, §2
# [15] = test system: Trichophyton mentagrophytes; test: In Vitro Agar Screening Test; settings: Emmons agar, 30°C, levels 1, 5, 10, 50 μg/ml, read-out: Minimum Inhibitory Concentration
# Protocol: as §1, §2
# [16] = test system: Staphylococcus aureus; test: Staphylococcus Aureus Use Dilution Test; settings: Tryptic Soy Broth, 24 hours at 37°C, minimum concentration in which no growth occurs, read-out: Minimum Inhibitory Concentration
# Protocol: This test measures the bacteriostatic effectiveness of a particular test compound against Staphylococcus aureus. Tryptic Soy Broth is dispensed aseptically into sterile 13 × 100 mm clear glass culture tubes. The first tube receives 3.6 ml of medium and tubes 2 through 10 receive 2.0 ml of medium. The test compound is dissolved in acetone to give 10 ml of a solution of 0.10% of the test compound. Using a sterile syringe, 0.4 ml of the test compound solution is placed in the first tube containing the 3.6 ml of sterile broth and mixed thoroughly. This operation is continued through to the tenth tube. From the tenth tube, 2.0 ml of solution is removed and discarded. Each tube is then inoculated with 0.1 ml of a 24-hour culture of Staphylococcus aureus in Tryptic Soy Broth, and the mixture is mixed thoroughly using a Vortex mixer. A control is also set up to be sure that the inoculum is viable using a tube of sterile broth containing no added toxicant. The tubes are incubated for 24 hours at 37°C. The tubes are then examined to determine growth of the organism in the culture tubes. The minimum concentration in which no growth of the organism occurs is recorded. The following table gives the minimum inhibitory concentration necessary to control the organism: […]
smiles,measurement,setting,value
"O=C(CBr)OC1CCOC1 (stereo not shown) [Compound No. 1, 3-bromoacetoxy tetrahydrofuran]",MIC,[1],50 µg/mL
same,MIC,[2],> 50 µg/mL
same,MIC,[3],50 µg/mL
same,MIC,[4],1 µg/mL
same,MIC,[5],1 µg/mL
same,MIC,[6],5 µg/mL
same,MIC,[7],50 µg/mL
same,MIC,[8],> 50 µg/mL
same,MIC,[9],50 µg/mL
same,MIC,[10],> 50 µg/mL
same,MIC,[11],50 µg/mL
same,MIC,[12],50 µg/mL
same,MIC,[13],5 µg/mL
same,MIC,[14],50 µg/mL
same,MIC,[15],50 µg/mL
same,MIC,[16],12.5 µg/mL

# From US3953478A, “Tetrahydrofuranyl bromoacetates biocides” (Stauffer Chemical Company, priority 1975, dated 1976)
